≈ marks a conversion by molar mass, not a printed value. Like-named read-outs stand apart in the source and are kept apart here.
Tests used:
[1] = test system: A2780, human ovarian carcinoma cells; assay: Proliferation assay, A2780 (crystal violet); format: cell-based; conditions: A2780, 4 days, read-out: Inhibition of A2780 cell proliferation IC50
Method: Cultivated tumour cells (HeLa, human cervical tumour cells, ATCC CCL-2; NCI-H460, human non-small cell lung carcinoma cells, ATCC HTB-177; A2780, human ovarian carcinoma cells, ECACC #93112519; DU 145, hormone-independent human prostate carcinoma cells, ATCC HTB-81; HeLa-MaTu-ADR, multidrug-resistant human cervical carcinoma cells, EPO-GmbH Berlin; Caco-2, human colorectal carcinoma cells, ATCC HTB-37; B16F10, mouse melanoma cells, ATCC CRL-6475) were plated at a density of 5,000 cells/well (DU145, HeLa-MaTu-ADR), 3,000 cells/well (NCI-H460, HeLa), 2,500 cells/well (A2780), 1,500 cells/well (Caco-2), or 1,000 cells/well (B16F10) in a 96-well multititer plate in 200 μL of their respective growth medium supplemented 10% fetal calf serum. After 24 hours, the cells of one plate (zero-point plate) were stained with crystal violet (see below), while the medium of the other plates was replaced by fresh culture medium (200 μl), to which the test substances were added in various concentrations (0 μM, as well as in the range of 0.001-10 μM; the final concentration of the solvent dimethyl sulfoxide was 0.5%). The cells were incubated for 4 days in the presence of test substances. Cell proliferation was determined by staining the cells with crystal violet: the cells were fixed by adding 20 μl/measuring point of an 11% glutaric aldehyde solution for 15 minutes at room temperature. After three washing cycles of the fixed cells with water, the plates were dried at room temperature. The cells were stained by adding 100 μl/measuring point of a 0.1% crystal violet solution (pH 3.0). After three washing cycles of the stained cells with water, the plates were dried at room temperature. The dye was dissolved by adding 100 μl/measuring point of a 10% acetic acid solution. The extinction was determined by photometry at a wavelength of 595 nm. The change of cell number, in percent, was calculated by normalization of the measured values to the extinction values of the zero-point plate (=0%) and the extinction of the untreated (0 μm) cells (=100%). The IC50 values (inhibitory concentration at 50% of maximal effect) were determined by means of a 4 parameter fit. Non-adherent MOLM-13 human acute myeloid leukemia cells (DSMZ ACC 554) were seeded at a density of 5,000 cells/well in a 96-well multititer plate in 100 μL of growth medium supplemented 10% fetal calf serum. After 24 hours, cell viability of one plate (zero-point plate) was determined with the Cell Titre-Glo Luminescent Cell Viability Assay (Promega), while 50 μL of test compound containing medium was added to the wells of the other plates (final concentrations in the range of 0.001-10 μM and DMSO controls; the final concentration of the solvent dimethyl sulfoxide was 0.5%). Cell viability was assessed after 72-hour exposure with the Cell Titre-Glo Luminescent Cell Viability Assay (Promega).

[2] = Equilibrium shake flask solubility assay, thermodynamic solubility in citrate buffer pH 4; format: physicochemical; conditions: citrate buffer pH 4, 24 h, room temperature; for solubility at 24 h: citrate buffer, pH 4, aqueous buffer, thermodynamic from solid, read-out: Solubility in aqueous Citrate buffer pH4
Method: 4b) Thermodynamic Solubility in Citrate Buffer pH 4
Thermodynamic solubility was determined by an equilibrium shake flask method [Literature: Edward H. Kerns and Li Di (2008) Solubility Methods in: Drug-like Properties: Concepts, Structure Design and Methods, p276-286. Burlington, Mass.: Academic Press].
A saturated solution of the drug was prepared and the solution was mixed for 24 h to ensure that equilibrium has been reached. The solution was centrifuged to remove the insoluble fraction and the concentration of the compound in solution was determined using a standard calibration curve.
To prepare the sample, 1.5 mg solid compound was weighed in a 4 ml glass vial. 1 ml Citrate buffer pH 4 was added. The suspension was put on a stirrer and mixed for 24 hrs at room temperature. The solution was centrifuged afterwards. To prepare the sample for the standard calibration, 0.6 mg solid sample was dissolved in 19 ml acetonitrile/water 1:1. After sonification the solution was filled up with acetonitrile/water 1:1 to 20 ml.
Sample and standards were quantified by HPLC with UV-detection. For each sample two injection volumes (5 and 50 μl) in triplicates were made. Three injection volumes (5 μl, 10 μl and 20 μl) were made for the standard.
The areas of sample- and standard injections as well as the calculation of the solubility value (in mg/l) were determined by using HPLC software (Waters Empower 2 FR).

Caco-2 permeation assay = format: in vitro ADME, human; conditions: human; for Papp A→B at 2 h, 2 µM / Papp B→A at 2 h, 2 µM: Caco-2, pH 7.2, Caco-2, 2 μM test compound; for Papp A→B at 2 h, 2 µM: apical to basolateral, read-out: Papp A-B (Mari); for Papp B→A at 2 h, 2 µM: basolateral to apical, read-out: Papp B-A (Mari); for efflux ratio at 2 h, 2 µM: Caco-2, pH 7.2, Caco-2, 2 μM, Papp B-A / Papp A-B
Method: 5. Caco-2 Permeation Assay:
Caco-2 cells (purchased from DSMZ Braunschweig, Germany) were seeded at a density of 4.5×10^4 cells per well on 24 well insert plates, 0.4 μm pore size, and grown for 15 days in DMEM medium supplemented with 10% fetal bovine serum, 1% GlutaMAX (100×, GIBCO), 100 U/mL penicillin, 100 μg/mL streptomycin (GIBCO) and 1% non essential amino acids (100 ×). Cells were maintained at 37° C. in a humified 5% CO2 atmosphere. Medium was changed every 2-3 day. Before running the permeation assay, the culture medium was replaced by a FCS—free hepes-carbonate transport buffer (pH 7.2). For assessment of monolayer integrity the transepithelial electrical resistance (TEER) was measured. Test compounds were predissolved in DMSO and added either to the apical or basolateral compartment in final concentration of 2 μM in transport buffer. Before and after 2 h incubation at 37° C. samples were taken from both compartments. Analysis of compound content was done after precipitation with methanol by LC/MS/MS analysis. Permeability (Papp) was calculated in the apical to basolateral (A→B) and basolateral to apical (B→A) directions. The apparent permeability was calculated using following equation: Papp=(Vr/Po)(1/S)(P2/t)
Where Vr is the volume of medium in the receiver chamber, Po is the measured peak area or height of the test drug in the donor chamber at t=o, S the surface area of the monolayer, P2 is the measured peak area of the test drug in the acceptor chamber after 2 h of incubation, and t is the incubation time. The efflux ratio basolateral (B) to apical (A) was calculated by dividing the Papp B-A by the Papp A-B. In addition the compound recovery was calculated. The following reference compounds were used for the classification of the permeability class: Antipyrine, Pyrazosin, Verapamil, Fluvastatin, Cimetidine, Ranitidine, Atenolol, Sulfasalazine.

Compound | IC50 ([1]; Homo sapiens, A2780, 96 h) [µM] | solubility at 24 h [2] [µg/mL] | also measured
COc1cc(CS(C)(=N)=O)cc(Nc2cc(-c3ccc(F)cc3OC)c(F)cn2)n1 (racemic) [Example 6, (rac)-5-Fluoro-4-(4-fluoro-2-methoxyphenyl)-N-{6-methoxy-4-[(S-methylsulfonimidoyl)methyl]pyridin-2-yl}pyridin-2-amine] | 0.011 |  | 
COc1cc(F)ccc1-c1cc(Nc2cc(CS(C)(=N)=O)cc(Cl)n2)ncc1F (racemic) [Example 7, (rac)-N-{6-Chloro-4-[(S-methylsulfonimidoyl)methyl]pyridin-2-yl}-5-fluoro-4-(4-fluoro-2-methoxyphenyl)pyridin-2-amine] | 0.027 |  | 
COc1cc(F)ccc1-c1cc(Nc2cc(CS(C)(=N)=O)cc(C(F)(F)F)n2)ncc1F (racemic) [Example 21, (rac)-5-Fluoro-4-(4-fluoro-2-methoxyphenyl)-N-{4-[(S-methylsulfonimidoyl)methyl]-6-(trifluoromethyl)pyridin-2-yl}pyridin-2-amine] | 0.017 |  | Papp A→B at 2 h, 2 µM (Caco-2 permeation assay): 5.1 ×10⁻⁶ cm/s; Papp B→A at 2 h, 2 µM (Caco-2 permeation assay): 3.3 ×10⁻⁶ cm/s; efflux ratio at 2 h, 2 µM (Caco-2 permeation assay): 0.64
CCOc1cc(F)ccc1-c1cc(Nc2cc(CS(C)(=N)=O)cc(F)n2)ncc1F (racemic) [Example 26, (rac)-4-(2-Ethoxy-4-fluorophenyl)-5-fluoro-N-{6-fluoro-4-[(S-methylsulfonimidoyl)methyl]pyridin-2-yl}pyridin-2-amine] | 0.036 |  | 
CCS(=N)(=O)Cc1ccnc(Nc2cc(-c3ccc(F)cc3OC)c(F)cn2)c1 (racemic) [Example 30, (rac)-N-{4-[(S-Ethylsulfonimidoyl)-methyl]pyridin-2-yl}-5-fluoro-4-(4-fluoro-2-methoxyphenyl)pyridin-2-amine] |  |  | Papp A→B at 2 h, 2 µM (Caco-2 permeation assay): 18.6 ×10⁻⁶ cm/s; Papp B→A at 2 h, 2 µM (Caco-2 permeation assay): 17.2 ×10⁻⁶ cm/s; efflux ratio at 2 h, 2 µM (Caco-2 permeation assay): 0.92
COc1cc(F)ccc1-c1cc(Nc2cc(CS(C)(=N)=O)ccn2)ncc1F (single isomer, unassigned; (+)) [Example 2, (+)-5-Fluoro-4-(4-fluoro-2-methoxyphenyl)-N-{4-[(S-methylsulfonimidoyl)methyl]pyridin-2-yl}pyridin-2-amine] |  |  | Papp A→B at 2 h, 2 µM (Caco-2 permeation assay): 16.6 ×10⁻⁶ cm/s; Papp B→A at 2 h, 2 µM (Caco-2 permeation assay): 18.6 ×10⁻⁶ cm/s; IC50 [1]: 0.11 µM
COc1cc(F)ccc1-c1cc(Nc2cc(CS(C)(=N)=O)cc(C)n2)ncc1F (single isomer, unassigned; (+)) [Example 32, (+)-5-Fluoro-4-(4-fluoro-2-methoxyphenyl)-N-{6-methyl-4-[(S-methylsulfonimidoyl)methyl]pyridin-2-yl}pyridin-2-amine] | 0.01 |  | 
COc1cc(F)ccc1-c1cc(Nc2cc(CS(C)(=N)=O)cc(C(F)(F)F)n2)ncc1F (single isomer, unassigned; (-)) [Example 23, (−)-5-Fluoro-4-(4-fluoro-2-methoxyphenyl)-N-{4-[(S-methylsulfonimidoyl)methyl]-6-(trifluoromethyl)pyridin-2-yl}pyridin-2-amine] |  |  | IC50 [1]: 0.011 µM; Solubility in aqueous Citrate buffer pH4 [2]: 45 mg/l

Now from value to compound, other results behind:

IC50 ([1]; Homo sapiens, A2780, 96 h) [µM] | solubility at 24 h [2] [µg/mL] | Compound | also measured
0.21 | 660 (≈ 1520 µM) | COc1cc(F)ccc1-c1cc(Nc2cc(CS(=N)(=O)CCN)ccn2)ncc1F (racemic) [Example 9, (rac)-N-(4-{[S-(2-Aminoethyl)sulfonimidoyl]methyl}pyridin-2-yl)-5-fluoro-4-(4-fluoro-2-methoxyphenyl)pyridin-2-amine] | 
0.023 | 185 (≈ 388 µM) | CCOC(=O)N=S(C)(=O)Cc1ccnc(Nc2cc(-c3ccc(F)cc3OC)c(F)cn2)c1 (racemic) [Example 11, (rac)-Ethyl{[(2-{[5-fluoro-4-(4-fluoro-2-methoxyphenyl)pyridin-2-yl]amino}pyridin-4-yl)methyl](methyl)oxido-λ^6-sulfanylidene}carbamate] | 
0.026 | 34 (≈ 71.5 µM) | CCNC(=O)N=S(C)(=O)Cc1ccnc(Nc2cc(-c3ccc(F)cc3OC)c(F)cn2)c1 (racemic) [Example 12, (rac)-1-Ethyl-3-{[(2-{[5-fluoro-4-(4-fluoro-2-methoxyphenyl)pyridin-2-yl]amino}pyridin-4-yl)methyl](methyl)oxido-λ^6-sulfanylidene}urea] | 
0.023 |  | COc1cc(F)ccc1-c1cc(Nc2cc(CS(C)(=O)=NC(C)=O)ccn2)ncc1F (racemic) [Example 13, (rac)-N-{[(2-{[5-Fluoro-4-(4-fluoro-2-methoxyphenyl)pyridin-2-yl]amino}pyridin-4-yl)methyl](methyl)oxido-λ^6-sulfanylidene}acetamide] | 
0.01 | 102 (≈ 238 µM) | COc1cc(F)ccc1-c1cc(Nc2cc(CS(C)(=O)=NC#N)ccn2)ncc1F (single isomer, unassigned) [Example 10, {[(2-{[5-Fluoro-4-(4-fluoro-2-methoxyphenyl)pyridin-2-yl]amino}pyridin-4-yl)methyl](methyl)oxido-λ^6-sulfanylidene}cyanamide] | 
 | 699 (≈ 1730 µM) | COc1cc(F)ccc1-c1cc(Nc2cc(CS(C)(=N)=O)ccn2)ncc1F (single isomer, unassigned; (-)) [Example 3, (−)-5-Fluoro-4-(4-fluoro-2-methoxyphenyl)-N-{4-[(S-methylsulfonimidoyl)methyl]pyridin-2-yl}pyridin-2-amine] | IC50 [1]: 0.052 µM
 | 600 | COc1cc(F)ccc1-c1cc(Nc2cc(CS(C)(=N)=O)ccn2)ncc1F.Cl (single isomer, unassigned; enantiomer 2) [Example 14, 5-Fluoro-4-(4-fluoro-2-methoxyphenyl)-N-{4-[(S-methylsulfonimidoyl)methyl]pyridin-2-yl}pyridin-2-amine hydrochloride; enantiomer 2] | 

Source: patent US9650340B2, “5-fluoro-N-(pyridin-2-yl)pyridin-2-amine derivatives containing a sulfoximine group” (BAYER PHARMA AKTIENGESELLSCHAFT, priority 2012, dated 2017)
